Assay results as given in article PMC9785474, “Solubility Enhancement of Dihydroquercetin via “Green” Phase Modification” (International Journal of Molecular Sciences, 2022).
Converted amounts (≈) assume the structure as drawn.

How the values were obtained:
[1] = Solubility by European Pharmacopeia (EP) express method; assay type: physicochemical; conditions: for solubility: thermodynamic from solid; for solubility / Term by EP: water solubility, ambient conditions, European Pharmacopeia 10.0
Procedure: Solubility is one of the key parameters to describe the biopharmaceutical characteristics of active pharmaceutical ingredients. There are different ways of solubility determination. One of them is an express method widely used in pharmaceutical science, described in European Pharmacopeia (EP). More accurate data may be obtained by the sedimentation method.
The analysis was performed in accordance with the pharmacopoeial monograph of European Pharmacopeia 10.0 [52] at ambient conditions.

[2] = ABTS/PP antioxidant capacity assay; conditions: for Antioxidant Capacity, n-Value: ABTS•+ radicals scavenged by one molecule of antioxidant, 6 min, 730 nm; for Antioxidant Capacity, n-Value / Antioxidant Capacity, ΔA: mean ± SD; for Antioxidant Capacity, ΔA: absorbance decrease at 730 nm, 6 min incubation at 32 °C, corrected for self-bleaching; for Changes of ΔA and n-values from DHQR (paired Student's t-test): compared with DHQR
Procedure: To compare the antioxidant capacity of DHQ in different forms, we employed the ABTS/PP assay, as reported by Re et al., with some modifications. In brief, an antioxidant was added to the pre-generated stock solution of radical-cation ABTS^•+, and then, after 6 min incubation in the dark place at 32 °C, the decrease in the absorption at 730 nm was calculated. ABTS^•+ self-bleaching after 6 min was measured in the same conditions without the addition of antioxidants. The initial ABTS^•+ absorbance in the incubation mix before the addition of an antioxidant was adjusted to […]. The stock solution of the radical-cation ABTS^•+ was prepared by the incubation of the ABTS with PP at final concentrations of 7 mM and 2.5 mM, respectively, during 12–16 h in the dark. UV-Vis spectra were obtained on a Cary 100 (Varian, Palo Alto, CA, USA).
The absorbance decrease ∆A at 730 nm due to inhibition of radical-cation ABTS^•+ was calculated as follows (5):∆A = A0 − A1 − ∆Asb,(5) where A0 and A1 are the ABTS^•+ absorbances at 730 nm, pathlength 1 cm, before and 6 min after the antioxidant addition, respectively. The self-bleaching of radical-cation ABTS^•+ ∆Asb was calculated as the difference between the ABTS^•+ absorbance right after the addition of stock ABTS^•+ to PBS to give absorbance 1.0 ± 0.1 and 6 min later.
The amount of ABTS^•+ radicals scavenged by one molecule of antioxidant (n-value) was calculated according to the Equation (6):(6) N=CABTS·+/Cantioxidant=ΔA/ε · Cantioxidant, where CABTS^•+ is the concentration of the scavenged ABTS^•+, ε is the extinction at 730 nm 15,000 L·mol^−1·cm^−1, l is the optical pathlength 1 cm, and Cantioxidant is the concentration of the antioxidant.

[3] = Solubility by sedimentation method (centrifugation, UV spectrometry); assay type: physicochemical; conditions: for solubility: water, thermodynamic from solid
Procedure: Solubility is one of the key parameters to describe the biopharmaceutical characteristics of active pharmaceutical ingredients. There are different ways of solubility determination. One of them is an express method widely used in pharmaceutical science, described in European Pharmacopeia (EP). More accurate data may be obtained by the sedimentation method. […] To determine the concentration of DHQ solutions, UV spectrometry was applied. Three hundred mg of each DHQ sample were dissolved in 10.0 mL of […] and centrifuged for 5 min at 10,000 rpm by centrifuge MiniSpin® (Eppendorf AG, Hamburg, Germany). The analyzed solutions were prepared by dilution of the supernatant 50 μL up to 25 mL with distilled water. The UV spectra were recorded with a Cary-100 (Varian, Palo Alto, CA, USA). The accurate concentrations were calculated using a calibration curve.

[4] = 300 mg in 10.0 mL, centrifuged 5 min at 10,000 rpm, UV spectrometry of supernatant, mean ± SD

| Structure (SMILES) | solubility [1] [µg/mL] | Term by EP [1] | Antioxidant Capacity, n-Value [2] | Antioxidant Capacity, ΔA [2] | solubility [3, 4] [µg/mL] | Enhancement of water solubility compared with DHQR, EP method ([1]; compared with DHQR) | Changes of ΔA and n-values from DHQR (paired Student's t-test) [2] | Increase of solubility compared with DHQR, sedimentation method [3] [times] | Solubility, By Sedimentation Method [3, 4] [µg/mL] |
| --- | --- | --- | --- | --- | --- | --- | --- | --- | --- |
| O=C1c2c(O)cc(O)cc2OC(c2ccc(O)c(O)c2)C1O (stereo not shown) [DHQR, 2-(3,4-dihydroxyphenyl)-3,5,7-trihydroxy-2,3-dihydro-4H-1-benzopyran-4-one, reference compound] | 100 to 1000 (≈ 0.329 to 3.29 mM) | very slightly soluble | 7.30 ± 0.24 | 0.511 ± 0.017 | 700 ± 20 (≈ 2.3 mM) | – | – | – | – |
| O=C1c2c(O)cc(O)cc2O[C@H](c2ccc(O)c(O)c2)[C@H]1O [DHQE] | – | soluble | 7.19 ± 0.37 | 0.504 ± 0.026 | 3090 ± 90 (≈ 10.2 mM) | at least 30 fold | statistically non-significant changes | 4.4 | – |
| O=C1c2c(O)cc(O)cc2O[C@H](c2ccc(O)c(O)c2)[C@H]1O [DHQA] | 1000 to 10000 (≈ 3.29 to 32.9 mM) | slightly soluble | 7.13 ± 0.19 | 0.499 ± 0.014 | – | – | statistically non-significant changes | 3.1 | 2140 ± 60 (≈ 7.03 mM) |
